Test results as given in patent US11491175B2, “Synergistic bioactive compositions for enhancing cellular energy” (CELAGENEX RESEARCH (INDIA) PVT. LTD., priority 2019, dated 2022).
Values joined by “and” are separate entries in the source; they are usually repeats but may differ in a detail not shown here. Equal values may be shown once.

Experiments:
[1] = system: HepG2 (Human Hepatocyte) cell line; test: In vitro cytotoxicity by MTT colorimetric assay on HepG2 cell line; type: cell-based; conditions: for % Inhibition: 72 hours incubation
Experimental: The in vitro cytotoxicity study was performed on HepG2 (Human Hepatocyte) cell line to find a nontoxic concentration of the test substances by MTT colorimetric assay and evaluate their potential on cellular respiration by measuring cellular ATP levels.
About 10 mg of all the test substances (as indicated in Table 1) were separately dissolved with 100 μl of Dimethyl sulfoxide (DMSO) and volume was made up with Dulbecco's Modified Eagle Medium-High glucose (DMEM-HG) supplemented with 2% inactivated Fetal Bovine Serum (FBS) to obtain a stock solution of 1 mg/ml concentration and sterilized by 0.22p, syringe filtration. Serial two-fold dilutions were prepared from the stock for carrying out further studies.
The monolayer cell culture was trypsinized and the cell count was adjusted to 1.0×10^5 cells/ml using Ham's F12 medium containing 10% FBS to obtain a cell suspension. To each well of the 96 well microtitre plate, 0.1 ml of the diluted cell suspension was added. After 24 hours, when a partial monolayer was formed, the supernatant was flicked off, the monolayer was washed once with medium and 100 μl of different concentrations of test substances were added. The plate was then incubated at 37° C. for 72 hours in a 5% CO2 atmosphere, and microscopic examination was carried out and observations were noted every 24 hours.
After 72 hours of incubation, the drug solutions in the wells were discarded and 50 μl of MTT in PBS was added to each well. The plate was gently shaken and incubated for 3 hr at 37° C. in a 5% CO2 atmosphere. The supernatant was removed and 100 μl of 2-propanol was added and the plate was gently shaken to solubilize the formed formazan. The absorbance was measured using a microplate reader at a wavelength of 540 nm. The percentage growth inhibition was calculated using the standard formula. The concentration of test substances needed to inhibit the growth of the cell by 50% i.e., CTC50 values were generated from the dose-response curves.

HepG2 cells = test: Estimation of cellular respiration by measuring cellular ATP levels in HepG2 cells; type: cell-based, Human; conditions: for Cellular ATP / Percentage enhancement of cellular ATP levels over control: HepG2, 2 hours treatment
Experimental: The test substances were evaluated for their in vitro effect on cellular energy by measuring cellular ATP levels in human Hepatocytes (HepG2) cell line.
HepG2 cells were trypsinized from stock culture flasks and the cell count was adjusted to 1.0×10^5 cells/ml to obtain a cell suspension that was seeded into a 96-well plate. […] After 2 hours of treatment, the plate was washed with phosphate buffer saline. The cellular ATP levels determination was performed according to the instructions given in the kit manual (SIGMA, #MAK190). At the end of the experiment, the optical density was read at 570 nm using microplate reader. From the absorbance values, the cellular ATP levels were estimated using kit protocol and the concentration of cellular ATP in treated groups were determined in comparison to the control groups.

[2] = along with H2O2 (20 μM) (IMP 500 μg/ml, NMN 250 μg/ml, IMP + NMN 500 + 250 μg/ml)
[3] = substance alone (IMP 500 μg/ml, NMN 250 μg/ml, IMP + NMN 500 μg/ml, H2O2 20 μM)

**Q.** Which “% Inhibition” value ([1]; test conc. 62.5 μg/ml) does the source give for `NC(=O)c1ccc[n+]([C@@H]2O[C@H](COP(=O)([O-])O)[C@@H](O)[C@H]2O)c1` [NMN, β-Nicotinamide mononucleotide] here?
**A.** The value was 2.26 ± 1.49%.

**Q.** What about the “% Inhibition” value ([1]; test conc. 125 μg/ml) of the same compound?
**A.** Its value is 21.59 ± 1.89%.

**Q.** What about the “% Inhibition” value ([1]; test conc. 250 μg/ml) of the same compound?
**A.** The value was 30.51 ± 0.38%.

**Q.** What about the “% Inhibition” value ([1]; test conc. 500 μg/ml) of the same compound?
**A.** The value was 59.95 ± 1.78%.

**Q.** And the “% Inhibition” value ([1]; test conc. 1000 μg/ml)?
**A.** Its value is 76.59 ± 0.54%.

**Q.** And the “CTC 50” value ([1]; 72 hours, concentration needed to inhibit cell growth by 50%)?
**A.** The value was 415 ± 8.99 µg/mL and 415.92 ± 8.99 µg/mL.

**Q.** What about the “Cellular ATP” value (HepG2 cells; [2]) of the same compound?
**A.** Its value is 8.28 ± 0.65 nmol.

**Q.** What about the “Percentage enhancement of cellular ATP levels over control” value (shortened to “Percentage enhancement”) (HepG2 cells; [2]) of the same compound?
**A.** Its value is 29.01 ± 4.25%.

**Q.** What about the “Cellular ATP” value (HepG2 cells; [3]) of the same compound?
**A.** Its value is 4.43 ± 0.23 nmol.

**Q.** What about the “Percentage enhancement” value (HepG2 cells; substance alone (IMP 500 μg/ml, NMN 250 μg/ml, IMP + NMN 2:1 500 μg/ml), over hydrogen peroxide control) of the same compound?
**A.** Its value is 13.97±1.25%.

**Q.** What about the “Percentage enhancement” value (HepG2 cells; substance alone (IMP 500 μg/ml, NMN 250 μg/ml, IMP + NMN 2:1 500 μg/ml), over hydrogen peroxide control, listed as G4) of the same compound?
**A.** Its value is 13.97 ± 1.25%.

**Q.** And the “cellular ATP levels (in words)” value (HepG2 cells; HepG2, in combination with Hydrogen peroxide (20 μM))?
**A.** The value was “increased the cellular ATP levels significantly”.

**Q.** With Hydrogen Peroxide [Composition G2] as the compound, how does the “Cellular ATP” value (HepG2 cells; [3]) read?
**A.** The value was 0.86 ± 0.02 nmol.
